Legend:
Experiment in all cases: Kinase profiling
Format in all cases: biochemical
CDK7/CycH/MAT1 = target: T1, CDK7/CycH/MAT1 (Homo sapiens, UniProt P50613)
T1 construct: purchased ProQinase (Freiburg, Germany)
Protocol: (§1) The analysis was performed by ProQinase (Freiburg, Germany).

GRK2 = target: T2, GRK2 (Homo sapiens, UniProt P25098)
T2 construct: purchased ProQinase (Freiburg, Germany)
T2 sequence (P25098 1-689): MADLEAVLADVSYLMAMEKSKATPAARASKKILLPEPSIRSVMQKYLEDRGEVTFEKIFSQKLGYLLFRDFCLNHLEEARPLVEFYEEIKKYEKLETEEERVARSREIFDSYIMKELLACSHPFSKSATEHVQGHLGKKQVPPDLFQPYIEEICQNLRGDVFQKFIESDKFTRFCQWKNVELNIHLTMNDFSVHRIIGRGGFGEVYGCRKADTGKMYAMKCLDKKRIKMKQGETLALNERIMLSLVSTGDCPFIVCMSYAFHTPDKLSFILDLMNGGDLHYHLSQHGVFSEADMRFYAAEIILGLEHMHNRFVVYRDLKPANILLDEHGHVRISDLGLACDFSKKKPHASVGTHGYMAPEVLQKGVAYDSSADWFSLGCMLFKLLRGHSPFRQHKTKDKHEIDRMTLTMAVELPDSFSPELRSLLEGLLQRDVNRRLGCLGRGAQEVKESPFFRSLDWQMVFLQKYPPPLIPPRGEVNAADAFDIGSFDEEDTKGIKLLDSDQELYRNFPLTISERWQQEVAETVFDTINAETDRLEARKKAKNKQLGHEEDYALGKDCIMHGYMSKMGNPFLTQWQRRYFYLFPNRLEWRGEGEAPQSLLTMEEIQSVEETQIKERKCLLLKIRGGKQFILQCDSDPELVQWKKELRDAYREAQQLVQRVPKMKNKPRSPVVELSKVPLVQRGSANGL
Protocol: as §1

EPHA1 = target: T3, EPHA1 (Homo sapiens, UniProt P21709)
T3 construct: purchased ProQinase (Freiburg, Germany)
T3 sequence (P21709 26-976): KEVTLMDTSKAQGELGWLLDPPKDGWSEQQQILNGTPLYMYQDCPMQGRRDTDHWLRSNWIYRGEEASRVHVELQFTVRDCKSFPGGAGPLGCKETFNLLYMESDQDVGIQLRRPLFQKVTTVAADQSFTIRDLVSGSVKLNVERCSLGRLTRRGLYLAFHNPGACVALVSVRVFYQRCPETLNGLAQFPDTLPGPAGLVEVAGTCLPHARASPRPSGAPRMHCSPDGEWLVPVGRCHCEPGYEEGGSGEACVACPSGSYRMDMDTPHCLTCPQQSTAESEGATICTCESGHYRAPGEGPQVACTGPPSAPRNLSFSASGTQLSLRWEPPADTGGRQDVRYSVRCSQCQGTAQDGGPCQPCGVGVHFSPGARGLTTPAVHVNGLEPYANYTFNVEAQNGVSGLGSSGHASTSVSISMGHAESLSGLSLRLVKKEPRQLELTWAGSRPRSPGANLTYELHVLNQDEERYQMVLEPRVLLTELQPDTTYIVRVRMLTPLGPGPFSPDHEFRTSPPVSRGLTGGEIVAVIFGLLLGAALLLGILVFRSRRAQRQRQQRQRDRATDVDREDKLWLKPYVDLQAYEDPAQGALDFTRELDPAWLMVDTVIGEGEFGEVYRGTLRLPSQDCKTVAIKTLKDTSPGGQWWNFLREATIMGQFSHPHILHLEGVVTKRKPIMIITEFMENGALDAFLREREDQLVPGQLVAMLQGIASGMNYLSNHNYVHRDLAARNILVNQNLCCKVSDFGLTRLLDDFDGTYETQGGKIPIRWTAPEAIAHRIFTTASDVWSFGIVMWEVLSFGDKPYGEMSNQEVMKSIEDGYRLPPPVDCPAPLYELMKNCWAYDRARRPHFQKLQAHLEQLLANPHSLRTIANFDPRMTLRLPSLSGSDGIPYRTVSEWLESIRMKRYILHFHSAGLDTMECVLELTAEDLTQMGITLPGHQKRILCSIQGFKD
Protocol: as §1

ZAK = target: T4, ZAK (Homo sapiens, UniProt Q9NYL2)
T4 construct: purchased ProQinase (Freiburg, Germany)
T4 sequence (Q9NYL2 whole entry): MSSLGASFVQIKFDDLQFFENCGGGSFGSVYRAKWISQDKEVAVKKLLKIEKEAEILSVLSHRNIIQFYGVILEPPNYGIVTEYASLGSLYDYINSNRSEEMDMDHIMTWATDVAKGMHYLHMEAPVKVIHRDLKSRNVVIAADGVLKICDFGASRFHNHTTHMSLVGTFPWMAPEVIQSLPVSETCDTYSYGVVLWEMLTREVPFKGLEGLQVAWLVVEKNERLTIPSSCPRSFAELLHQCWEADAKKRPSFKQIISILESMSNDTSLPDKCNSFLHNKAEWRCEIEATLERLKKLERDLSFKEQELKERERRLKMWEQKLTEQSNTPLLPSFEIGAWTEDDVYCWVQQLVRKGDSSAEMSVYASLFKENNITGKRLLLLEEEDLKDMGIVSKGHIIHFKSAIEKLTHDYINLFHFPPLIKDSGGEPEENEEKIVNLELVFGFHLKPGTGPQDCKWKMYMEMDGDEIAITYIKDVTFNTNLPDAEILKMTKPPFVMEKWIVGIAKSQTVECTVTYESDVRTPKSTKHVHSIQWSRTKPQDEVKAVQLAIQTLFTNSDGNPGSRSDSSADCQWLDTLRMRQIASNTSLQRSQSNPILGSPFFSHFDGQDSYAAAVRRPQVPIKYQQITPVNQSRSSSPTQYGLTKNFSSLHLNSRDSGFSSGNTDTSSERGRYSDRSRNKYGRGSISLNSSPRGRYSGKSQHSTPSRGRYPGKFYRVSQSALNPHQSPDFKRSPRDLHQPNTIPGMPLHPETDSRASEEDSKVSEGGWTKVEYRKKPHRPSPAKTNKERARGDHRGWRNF
Protocol: as §1

MASTL = target: T5, MASTL (Homo sapiens, UniProt Q96GX5)
T5 construct: purchased ProQinase (Freiburg, Germany)
T5 sequence (Q96GX5 1-879): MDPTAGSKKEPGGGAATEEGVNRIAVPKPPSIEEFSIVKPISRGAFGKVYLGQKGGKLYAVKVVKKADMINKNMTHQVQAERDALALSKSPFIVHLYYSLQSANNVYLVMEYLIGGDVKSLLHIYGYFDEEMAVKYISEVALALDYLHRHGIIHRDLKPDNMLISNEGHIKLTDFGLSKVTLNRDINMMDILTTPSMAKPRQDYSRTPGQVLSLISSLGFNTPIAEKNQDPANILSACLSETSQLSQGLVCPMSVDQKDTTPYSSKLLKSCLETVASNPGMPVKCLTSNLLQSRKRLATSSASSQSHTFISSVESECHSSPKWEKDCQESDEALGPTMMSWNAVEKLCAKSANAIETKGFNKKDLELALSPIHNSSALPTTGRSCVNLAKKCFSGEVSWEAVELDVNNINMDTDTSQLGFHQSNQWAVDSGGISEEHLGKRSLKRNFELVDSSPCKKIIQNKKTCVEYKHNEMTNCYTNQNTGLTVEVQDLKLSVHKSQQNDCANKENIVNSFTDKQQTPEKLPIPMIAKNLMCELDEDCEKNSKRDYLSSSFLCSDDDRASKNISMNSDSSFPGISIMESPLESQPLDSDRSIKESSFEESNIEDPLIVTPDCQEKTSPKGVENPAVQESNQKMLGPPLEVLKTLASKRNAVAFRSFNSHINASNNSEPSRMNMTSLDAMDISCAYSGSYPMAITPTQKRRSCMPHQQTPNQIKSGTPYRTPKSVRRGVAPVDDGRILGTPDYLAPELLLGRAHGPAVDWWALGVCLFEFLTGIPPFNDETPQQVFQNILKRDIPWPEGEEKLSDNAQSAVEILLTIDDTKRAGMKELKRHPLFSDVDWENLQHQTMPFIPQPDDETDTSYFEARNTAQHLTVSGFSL
Protocol: as §1

T1 sequence (P50613 whole entry): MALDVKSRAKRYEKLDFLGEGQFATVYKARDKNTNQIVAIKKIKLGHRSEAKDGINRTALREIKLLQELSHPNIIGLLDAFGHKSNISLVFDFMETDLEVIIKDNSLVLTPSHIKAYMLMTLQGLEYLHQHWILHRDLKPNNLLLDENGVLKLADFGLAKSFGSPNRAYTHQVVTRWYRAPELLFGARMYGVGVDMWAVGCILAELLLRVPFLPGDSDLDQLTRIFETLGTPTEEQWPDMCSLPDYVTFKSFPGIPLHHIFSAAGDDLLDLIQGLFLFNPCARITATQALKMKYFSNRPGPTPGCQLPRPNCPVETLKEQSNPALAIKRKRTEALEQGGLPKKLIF
T1 sequence (P51946 whole entry partner): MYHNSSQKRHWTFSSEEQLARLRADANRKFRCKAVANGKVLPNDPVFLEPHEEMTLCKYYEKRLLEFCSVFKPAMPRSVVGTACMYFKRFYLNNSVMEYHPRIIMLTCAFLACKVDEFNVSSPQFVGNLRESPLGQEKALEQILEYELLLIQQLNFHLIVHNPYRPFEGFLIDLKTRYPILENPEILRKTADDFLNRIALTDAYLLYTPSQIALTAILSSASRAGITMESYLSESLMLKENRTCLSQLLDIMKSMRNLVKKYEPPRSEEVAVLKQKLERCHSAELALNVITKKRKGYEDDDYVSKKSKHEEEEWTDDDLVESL
T1 sequence (P51948 whole entry partner): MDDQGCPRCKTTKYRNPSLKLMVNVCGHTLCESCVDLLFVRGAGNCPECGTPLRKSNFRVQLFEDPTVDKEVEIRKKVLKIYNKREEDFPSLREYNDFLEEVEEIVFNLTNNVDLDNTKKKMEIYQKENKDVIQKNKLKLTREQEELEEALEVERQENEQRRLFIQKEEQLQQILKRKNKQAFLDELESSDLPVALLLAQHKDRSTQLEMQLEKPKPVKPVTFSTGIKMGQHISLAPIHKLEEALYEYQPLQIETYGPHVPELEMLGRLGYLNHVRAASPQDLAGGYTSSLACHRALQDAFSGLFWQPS

| SMILES | Residual activity (CDK7/CycH/MAT1; 1.0E-05 M) | Residual activity (CDK7/CycH/MAT1; 1.0E-06 M) | Residual activity (GRK2; 1.0E-05 M) | Residual activity (GRK2; 1.0E-06 M) | Residual activity (EPHA1; 1.0E-05 M) | Residual activity (EPHA1; 1.0E-06 M) | Residual activity (ZAK; 1.0E-05 M) | Residual activity (ZAK; 1.0E-06 M) | Residual activity (MASTL; 1.0E-05 M) | Residual activity (MASTL; 1.0E-06 M) |
| --- | --- | --- | --- | --- | --- | --- | --- | --- | --- | --- |
| O=C(Nc1ccc(F)c(Nc2ccc3c(c2)CCCCC3=O)c1)c1cccc(F)c1 [Compound 109] | 92 % of control | 89 % of control | 88 % of control | 84 % of control | 85 % of control | 91 % of control | 106 % of control | 106 % of control | 99 % of control | 94 % of control |
| O=C(Cc1ccccc1)Nc1ccc(F)c(Nc2ccc3c(c2)CCCCC3=O)c1 [Compound 100] | 83 % of control | 94 % of control | 97 % of control | 97 % of control | 71 % of control | 83 % of control | 102 % of control | 109 % of control | 92 % of control | 99 % of control |
